Data on seven molecules can be found in ChEMBL document CHEMBL3046015, “Structure-dependent phytotoxicity of catechins and other flavonoids: flavonoid conversions by cell-free protein extracts of Centaurea maculosa (spotted knapweed) roots” (J Agric Food Chem, 2003).

The source made the active and inactive calls. The calls are words filed in the database; no cut-off is given here.

Series [1] has as its system Linaria genistifolia subsp. dalmatica. The series can be described thus: Phytotoxicity in Linaria genistifolia subsp. dalmatica assessed as inhibition of seed germination at 250 ug/mL measured on day 14 relative to untreated control. Type of series: functional, organism-based.
For series [2] the test system is unchanged. The series can be described thus: Phytotoxicity in Linaria genistifolia subsp. dalmatica assessed as inhibition of root differentiation at 250 ug/mL measured on day 14 relative to untreated control. Type of series: functional, organism-based.
For series [3], the system named is Bassia scoparia. The series can be described thus: Phytotoxicity in Bassia scoparia assessed as inhibition of shoot differentiation at 250 ug/mL measured on day 14 relative to untreated control. Type of series: functional, organism-based.
Series [4] concerns Bassia scoparia. The series can be described thus: Phytotoxicity in Bassia scoparia assessed as inhibition of root differentiation at 250 ug/mL measured on day 14 relative to untreated control. In kind it is functional, organism-based.
The test system of series [5] is Centaurea diffusa. As to the kind of experiment: Phytotoxicity in Centaurea diffusa assessed as inhibition of root differentiation at 250 ug/mL measured on day 14 relative to untreated control. Type of series: functional, organism-based.
In series [6] the test system is Centaurea maculosa. As to the kind of experiment: Phytotoxicity in Centaurea maculosa assessed as inhibition of seed germination at 250 ug/mL measured on day 14 relative to untreated control. Type of series: functional, organism-based.
Series [7] concerns Bassia scoparia. As to the kind of experiment: Phytotoxicity in Bassia scoparia assessed as inhibition of seed germination at 250 ug/mL measured on day 14 relative to untreated control. Type of series: functional, organism-based.
The test system of series [8] is Centaurea diffusa. As to the kind of experiment: Phytotoxicity in Centaurea diffusa assessed as inhibition of seed germination at 250 ug/mL measured on day 14 relative to untreated control. In kind it is functional, organism-based.
Series [9] has as its system Centaurea maculosa. As to the kind of experiment: Phytotoxicity in Centaurea maculosa assessed as inhibition of root differentiation at 250 ug/mL measured on day 14 relative to untreated control. Type of series: functional, organism-based.
Series [10] has as its system Triticum aestivum. The series can be described thus: Phytotoxicity in Triticum aestivum (wheat) assessed as inhibition of seed germination at 250 ug/mL measured on day 14 relative to untreated control. Type of series: organism-based. The following applies: in vivo.
Series [11] deals with Linaria genistifolia subsp. dalmatica. The series can be described thus: Phytotoxicity in Linaria genistifolia subsp. dalmatica assessed as inhibition of shoot differentiation at 250 ug/mL measured on day 14 relative to untreated control. Type of series: functional, organism-based.
Series [12] deals with Centaurea maculosa. As to the kind of experiment: Phytotoxicity in Centaurea maculosa assessed as inhibition of shoot differentiation at 250 ug/mL measured on day 14 relative to untreated control. In kind it is functional, organism-based.
Series [13] deals with Centaurea diffusa. As to the kind of experiment: Phytotoxicity in Centaurea diffusa assessed as inhibition of shoot differentiation at 250 ug/mL measured on day 14 relative to untreated control. Type of series: functional, organism-based.
Series [14] has as its system Centaurea maculosa. The series can be described thus: Phytotoxicity in Centaurea maculosa assessed as increase in mortality at 50 ug/mL measured on day 14 relative to untreated control. In kind it is functional, organism-based.
Series [15] deals with Triticum aestivum. As to the kind of experiment: Phytotoxicity in Triticum aestivum (wheat) assessed as increase in mortality at 50 ug/mL measured on day 14 relative to untreated control. In kind it is functional, organism-based.
The test system of series [16] is Centaurea diffusa. The series can be described thus: Phytotoxicity in Centaurea diffusa assessed as inhibition of seed germination at 50 ug/mL measured on day 14 relative to untreated control. In kind it is functional, organism-based.
Series [17] has as its system Centaurea diffusa. As to the kind of experiment: Phytotoxicity in Centaurea diffusa assessed as increase in mortality at 50 ug/mL measured on day 14 relative to untreated control. Type of series: functional, organism-based.
The test system of series [18] is Linaria genistifolia subsp. dalmatica. The series can be described thus: Phytotoxicity in Linaria genistifolia subsp. dalmatica assessed as increase in mortality at 50 ug/mL measured on day 14 relative to untreated control. In kind it is functional, organism-based.
Series [19] has the same test system. The series can be described thus: Phytotoxicity in Linaria genistifolia subsp. dalmatica assessed as inhibition of seed germination at 50 ug/mL measured on day 14 relative to untreated control. In kind it is functional, organism-based.
Series [20] relates to Centaurea maculosa. As to the kind of experiment: Phytotoxicity in Centaurea maculosa assessed as inhibition of seed germination at 50 ug/mL measured on day 14 relative to untreated control. Type of series: functional, organism-based.
For series [21], the system named is Triticum aestivum. The series can be described thus: Phytotoxicity in Triticum aestivum (wheat) assessed as inhibition of seed germination at 50 ug/mL measured on day 14 relative to untreated control. In kind it is functional, organism-based.
Series [22] relates to Solanum lycopersicum. The series can be described thus: Phytotoxicity in Solanum lycopersicum (tomato) assessed as increase in mortality at 50 ug/mL measured on day 14 relative to untreated control. In kind it is organism-based. The following applies: in vivo.
The test system of series [23] is Bassia scoparia. As to the kind of experiment: Phytotoxicity in Bassia scoparia assessed as increase in mortality at 50 ug/mL measured on day 14 relative to untreated control. Type of series: functional, organism-based.
The subject of series [24] is Bassia scoparia. The series can be described thus: Phytotoxicity in Bassia scoparia assessed as inhibition of seed germination at 50 ug/mL measured on day 14 relative to untreated control. In kind it is functional, organism-based.
In series [25] the test system is Centaurea maculosa. The series can be described thus: Phytotoxicity in Centaurea maculosa assessed as increase in mortality at 250 ug/mL measured on day 14 relative to untreated control. Type of series: functional, organism-based.
Series [26] concerns Bassia scoparia. The series can be described thus: Phytotoxicity in Bassia scoparia assessed as increase in mortality at 250 ug/mL measured on day 14 relative to untreated control. In kind it is functional, organism-based.
In the next series the test system is Arabidopsis thaliana. The series can be described thus: Phytotoxicity in Arabidopsis thaliana assessed as increase in mortality at 250 ug/mL measured on day 14 relative to untreated control. Type of series: organism-based. The following applies: in vivo.
The subject of series [27] is Triticum aestivum. The series can be described thus: Phytotoxicity in Triticum aestivum (wheat) assessed as increase in mortality at 250 ug/mL measured on day 14 relative to untreated control. In kind it is functional, organism-based.
The subject of series [28] is Solanum lycopersicum. As to the kind of experiment: Phytotoxicity in Solanum lycopersicum (tomato) assessed as increase in mortality at 250 ug/mL measured on day 14 relative to untreated control. Type of series: organism-based. The following applies: in vivo.
Series [29] has as its system Centaurea diffusa. The series can be described thus: Phytotoxicity in Centaurea diffusa assessed as increase in mortality at 250 ug/mL measured on day 14 relative to untreated control. Type of series: functional, organism-based.
Series [30] has as its system Linaria genistifolia subsp. dalmatica. As to the kind of experiment: Phytotoxicity in Linaria genistifolia subsp. dalmatica assessed as increase in mortality at 250 ug/mL measured on day 14 relative to untreated control. Type of series: functional, organism-based.

`O=c1c(O)c(-c2ccc(O)c(O)c2)oc2cc(O)cc(O)c12` [QUERCETIN]: the inhibition result (in [1]; in [2]; in the series on Bassia scoparia [3]; with Bassia scoparia [4]; in the series on Centaurea diffusa [5]; in the series with Centaurea maculosa [6]) was “inactive” each time. Besides, the inhibition entry (in the series on Bassia scoparia [7]; with Centaurea diffusa [8]; in the series with Centaurea maculosa [9]; in [11]; with Centaurea maculosa [12]; in the series on Centaurea diffusa [13]) was “inactive” in each case. In addition, the “inhibition (INH)” value with Triticum aestivum [10] is “Non-toxic”.

For `Oc1cc(O)c2c(c1)O[C@@H](c1ccc(O)c(O)c1)[C@H](O)C2` [(-)-CATECHIN], the inhibition result in the series with Centaurea maculosa [14] and in the series on Centaurea maculosa [20] was “inactive” each time. Besides, the inhibition result (with Triticum aestivum [15]; in the series with Centaurea diffusa [16]; with Centaurea diffusa [17]; in series [18]; in series [19]; in the series with Triticum aestivum [21]) was “Active” in each case. Further, the inhibition result in the series on Bassia scoparia [23] and with Bassia scoparia [24] was “Active” throughout. In addition, in the series with Solanum lycopersicum [22], the “inhibition (INH)” value was “Toxic”.

With `Oc1cc(O)c2c(c1)O[C@H](c1ccc(O)c(O)c1)[C@H](O)C2` [(-)-EPICATECHIN], the inhibition entry (in [1]; in series [2]; in the series with Bassia scoparia [3]; with Bassia scoparia [4]; in the series with Centaurea diffusa [5]; in the series on Centaurea maculosa [6]) was “inactive” throughout. For the same molecule, the inhibition result (with Bassia scoparia [7]; with Centaurea diffusa [8]; in the series on Centaurea maculosa [9]; in series [11]; in the series on Centaurea maculosa [12]; in the series on Centaurea diffusa [13]) was “inactive” each time. Also, the “inhibition (INH)” value in the series on Triticum aestivum [10] is reported as “Non-toxic”.

With `O=C1c2c(O)cc(O)cc2OC(c2ccc(O)c(O)c2)C1O` (racemic) [TAXIFOLIN], the inhibition result (in series [1]; in the series on Bassia scoparia [26]; in the series with Triticum aestivum [27]; in the series on Centaurea diffusa [29]; in the series with Bassia scoparia [7]; in the series with Centaurea diffusa [8]) was “Active” in each case. For the same molecule, in [30], the inhibition entry was “Active”. Moreover, the inhibition result in the series with Centaurea maculosa [25] and in the series with Centaurea maculosa [6] was “inactive” throughout. Further, the “inhibition (INH)” value with Arabidopsis thaliana, in the series on Solanum lycopersicum [28] and with Triticum aestivum [10] was “Toxic” each time.

As for `O=c1c(O)c(-c2ccc(O)cc2)oc2cc(O)cc(O)c12` [KAEMPFEROL], the inhibition result (in series [1]; with Bassia scoparia [26]; in the series on Triticum aestivum [27]; in the series with Centaurea diffusa [29]; in the series on Bassia scoparia [7]; with Centaurea diffusa [8]) was “Active” in each case. In addition, the inhibition result in series [30] was “Active”. The inhibition entry in the series with Centaurea maculosa [25] and in the series with Centaurea maculosa [6] was “inactive” each time. Further, the “inhibition (INH)” value in the series on Arabidopsis thaliana, with Solanum lycopersicum [28] and in the series on Triticum aestivum [10] was “Toxic” throughout.

As to `O=C1C[C@@H](c2ccc(O)cc2)Oc2cc(O)cc(O)c21` [NARINGENIN], the inhibition entry (in series [1]; in series [2]; in the series with Bassia scoparia [3]; in the series on Bassia scoparia [4]; in the series on Centaurea diffusa [5]; in the series with Centaurea maculosa [6]) was “inactive” in each case. Besides, the inhibition entry (in the series with Bassia scoparia [7]; with Centaurea diffusa [8]; in the series with Centaurea maculosa [9]; in series [11]; with Centaurea maculosa [12]; in the series with Centaurea diffusa [13]) was “inactive” each time. For the same molecule, in the series on Triticum aestivum [10], the “inhibition (INH)” value was “Non-toxic”.

Take `Oc1cc(O)c2c(c1)O[C@@H](c1ccc(O)c(O)c1)[C@@H](O)C2` [(+)-EPICATECHIN]: the inhibition result (in series [1]; in series [2]; in the series on Bassia scoparia [3]; in the series with Bassia scoparia [4]; in the series on Centaurea diffusa [5]; with Centaurea maculosa [6]) was “Active” throughout. Besides, the inhibition entry (in the series on Bassia scoparia [7]; in the series with Centaurea diffusa [8]; in the series on Centaurea maculosa [9]; in series [11]; in the series with Centaurea maculosa [12]; in the series on Centaurea diffusa [13]) was “Active” throughout. Moreover, the “inhibition (INH)” value with Triticum aestivum [10] is “Toxic”.
